Laboratory results as given in ChEMBL document CHEMBL1201862, “PubChem BioAssay data set” (2004).
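Assay format: 96-well plates, 48-hour exposure. GI50 marks 50% less growth.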 Calls of active or inactive are those of the source. Cut-off read from the data, not from the text of the source: active = GI50 up to about 1.1 µM and inactive = higher.

Key:
Assay in all cases: NCI tumour cell line growth inhibition, 48 h
HOP-92 = test system: HOP-92
NCI-H460 = test system: NCI-H460
SNB-75 = test system: SNB-75
HOP-62 = test system: HOP-62
A498 = test system: A498
SW-620 = test system: SW-620
CCRF-CEM = test system: CCRF-CEM
HCC 2998 = test system: HCC 2998
ACHN = test system: ACHN
COLO 205 = test system: COLO 205
HCT-15 = test system: HCT-15
RPMI-8226 = test system: RPMI-8226
NCI-H23 = test system: NCI-H23
LOX IMVI = test system: LOX IMVI
UO-31 = test system: UO-31
MOLT-4 = test system: MOLT-4
MDA-MB-231 = test system: MDA-MB-231
OVCAR-8 = test system: OVCAR-8
SN12C = test system: SN12C
M14 = test system: M14

Measured: GI50

CNC(=O)C(C)NC(=O)C(Cc1ccccc1)NC(=O)c1ccccc1 (configuration not stated)
inactive: HOP-92 > 100 µM | NCI-H460 > 100 µM | SNB-75 > 100 µM | HOP-62 > 100 µM | A498 > 100 µM | SW-620 > 100 µM | CCRF-CEM > 100 µM | HCC 2998 > 100 µM | ACHN > 100 µM | COLO 205 > 100 µM | RPMI-8226 > 100 µM | NCI-H23 > 100 µM | LOX IMVI > 100 µM | UO-31 > 100 µM | MOLT-4 > 100 µM | MDA-MB-231 > 100 µM | OVCAR-8 > 100 µM | SN12C > 100 µM | M14 > 100 µM
> 100 µM: HCT-15

CC1(C2(C)OC(=O)c3ccccc32)OC(=O)c2ccccc21 (configuration not stated)
> 100 µM: HCT-15
inactive: HOP-92 > 100 µM | NCI-H460 > 100 µM | SNB-75 > 100 µM | HOP-62 > 100 µM | A498 > 100 µM | SW-620 > 100 µM | HCC 2998 > 100 µM | ACHN > 100 µM | COLO 205 > 100 µM | RPMI-8226 > 100 µM | NCI-H23 > 100 µM | LOX IMVI > 100 µM | UO-31 > 100 µM | MOLT-4 83.8 µM | MDA-MB-231 > 100 µM | OVCAR-8 > 100 µM | SN12C > 100 µM | M14 > 100 µM

OC(CC(O)(C(F)(F)F)C(F)(F)F)c1ccc(C(O)CC(O)(C(F)(F)F)C(F)(F)F)cc1 (configuration not stated)
inactive: HOP-92 13 µM | NCI-H460 14.7 µM | SNB-75 17.5 µM | HOP-62 17 µM | A498 12.6 µM | SW-620 19.2 µM | CCRF-CEM 16.8 µM | HCC 2998 17.2 µM | ACHN 14.4 µM | RPMI-8226 15.6 µM | NCI-H23 12.9 µM | LOX IMVI 16.7 µM | UO-31 10.8 µM | MOLT-4 16.3 µM | MDA-MB-231 14.3 µM | OVCAR-8 15.9 µM | M14 15.9 µM
20.1 µM: HCT-15

C(CCCCc1nnc(N2CCCCC2)o1)CCCc1nnc(N2CCCCC2)o1
> 100 µM: HCT-15
inactive: HOP-92 > 100 µM | NCI-H460 > 100 µM | SNB-75 > 100 µM | HOP-62 > 100 µM | A498 > 100 µM | SW-620 > 100 µM | CCRF-CEM > 100 µM | HCC 2998 > 100 µM | ACHN > 100 µM | COLO 205 > 100 µM | NCI-H23 > 100 µM | LOX IMVI > 100 µM | UO-31 > 100 µM | MOLT-4 > 100 µM | MDA-MB-231 > 100 µM | OVCAR-8 > 100 µM | SN12C > 100 µM | M14 > 100 µM

CCOC(=O)C(=CNC(=S)Nc1c(CC)cccc1CC)C(=O)OCC
inactive: HOP-92 94.4 µM | NCI-H460 > 100 µM | SNB-75 12.8 µM | HOP-62 > 100 µM | A498 > 100 µM | SW-620 > 100 µM | CCRF-CEM > 100 µM | HCC 2998 > 100 µM | ACHN > 100 µM | COLO 205 > 100 µM | RPMI-8226 > 100 µM | NCI-H23 > 100 µM | LOX IMVI > 100 µM | UO-31 > 100 µM | MOLT-4 > 100 µM | MDA-MB-231 > 100 µM | OVCAR-8 > 100 µM | SN12C > 100 µM | M14 > 100 µM

COC(=O)c1ccccc1C1CN=NC12Cc1cc(C)cc(C)c1C2=O (configuration not stated)
inactive: HOP-92 26.9 µM | NCI-H460 45.5 µM | SNB-75 23.1 µM | HOP-62 > 100 µM | A498 2.9 µM | SW-620 62.7 µM | CCRF-CEM 33.4 µM | HCC 2998 46.9 µM | ACHN 88.7 µM | COLO 205 30.5 µM | NCI-H23 15.1 µM | LOX IMVI 20 µM | UO-31 43 µM | MOLT-4 32.1 µM | MDA-MB-231 14.4 µM | OVCAR-8 > 100 µM | SN12C 83.2 µM | M14 67.8 µM
17.3 µM: HCT-15

OC(C1CO1)C(O)C1CO1 (configuration not stated)
55.3 µM: HCT-15
inactive: HOP-92 > 75.5 µM | NCI-H460 3.33 µM | SNB-75 7.96 µM | HOP-62 7.26 µM | A498 74 µM | CCRF-CEM 3.71 µM | HCC 2998 44.6 µM | ACHN 4.04 µM | COLO 205 87.7 µM | RPMI-8226 69 µM | NCI-H23 20.1 µM | LOX IMVI 15.7 µM | UO-31 48.5 µM | MOLT-4 3.68 µM | MDA-MB-231 132 µM | OVCAR-8 55.2 µM | SN12C 20.7 µM | M14 18.6 µM

CCOP(=O)(OCC)/C(=C/c1ccccc1)CC(C)=O
inactive: HOP-92 > 100 µM | NCI-H460 > 100 µM | SNB-75 > 100 µM | HOP-62 > 100 µM | A498 > 100 µM | SW-620 > 100 µM | CCRF-CEM > 100 µM | HCC 2998 > 100 µM | ACHN > 100 µM | COLO 205 > 100 µM | NCI-H23 > 100 µM | LOX IMVI > 100 µM | UO-31 > 100 µM | MOLT-4 > 100 µM | MDA-MB-231 > 100 µM | OVCAR-8 > 100 µM | SN12C > 100 µM | M14 > 100 µM
> 100 µM: HCT-15

CC(C)(C)C(=O)C(Cc1ccccc1)C(=O)C(C)(C)C
inactive: HOP-92 29.6 µM | NCI-H460 > 100 µM | SNB-75 > 100 µM | HOP-62 > 100 µM | A498 > 100 µM | SW-620 > 100 µM | CCRF-CEM 39.6 µM | HCC 2998 > 100 µM | ACHN > 100 µM | COLO 205 > 100 µM | RPMI-8226 37.4 µM | NCI-H23 > 100 µM | LOX IMVI > 100 µM | UO-31 81.7 µM | MOLT-4 50.7 µM | MDA-MB-231 > 100 µM | OVCAR-8 > 100 µM | SN12C > 100 µM | M14 > 100 µM
> 100 µM: HCT-15

CC(CO)C1=CC(C#CCOCc2ccccc2)N(C(=O)Oc2ccccc2)c2ccccc21 (configuration not stated)
inactive: HOP-92 7.69 µM | NCI-H460 18 µM | SNB-75 22.9 µM | HOP-62 29.3 µM | A498 4.59 µM | SW-620 45.5 µM | CCRF-CEM 15 µM | HCC 2998 25.5 µM | ACHN 6.9 µM | COLO 205 15.1 µM | RPMI-8226 13.1 µM | NCI-H23 8.89 µM | LOX IMVI 33.5 µM | UO-31 26.4 µM | MOLT-4 4.63 µM | MDA-MB-231 39.6 µM | OVCAR-8 30.5 µM | SN12C 15.9 µM | M14 17.1 µM
5.04 µM: HCT-15

N/C(=N\N/C=C1\C=Nc2cc(C(F)(F)F)ccc2C1=O)NO
active: SNB-75 0.148 µM
inactive: HOP-92 > 10 µM | NCI-H460 > 10 µM | HOP-62 > 10 µM | A498 > 10 µM | SW-620 > 10 µM | CCRF-CEM > 10 µM | HCC 2998 > 10 µM | ACHN > 10 µM | COLO 205 > 10 µM | RPMI-8226 > 10 µM | NCI-H23 > 10 µM | LOX IMVI > 10 µM | UO-31 > 10 µM | MOLT-4 > 10 µM | MDA-MB-231 > 10 µM | OVCAR-8 > 10 µM | SN12C > 10 µM | M14 > 10 µM
> 10 µM: HCT-15
